Reference: ChEMBL document CHEMBL4765295, “Synthesis, pharmacological profile and 2D-QSAR studies of curcumin-amino acid conjugates as potential drug candidates” (Eur J Med Chem, 2020)
Where “and” joins values, the source holds several entries; their conditions need not be identical. Identical values can stand only once.

Legend:
Rattus norvegicus [1] = assay: Antiinflammatory activity in Wistar rat model of carrageenan-induced paw edema assessed as reduction in thickness of paw edema at 10 mg/kg, ip pretreated for 1 hr followed by carrageenan challenge and measured after 1 hr (reference value: 2.41 +/-0.05 mm); assay type: functional; settings: time 1 hr after carrageenan
Rattus norvegicus [2] = assay: Anti-inflammatory activity in Wistar rat assessed as inhibition of carrageenan-induced paw edema at 10 mg/kg, ip pretreated for 1 hr followed by carrageenan challenge and measured after 1 hr relative to control (reference value: 0.00 +/-0.02 %); assay type: functional; settings: time 2 hrs
Rattus norvegicus [3] = assay: Antiinflammatory activity in Wistar rat model of carrageenan-induced paw edema assessed as reduction in thickness of paw edema at 10 mg/kg, ip pretreated for 1 hr followed by carrageenan challenge and measured after 2 hrs (reference value: 2.06 +/-0.09 mm); assay type: functional; settings: time 3 hrs
Rattus norvegicus [4] = assay: Anti-inflammatory activity in Wistar rat assessed as inhibition of carrageenan-induced paw edema at 10 mg/kg, ip pretreated for 1 hr followed by carrageenan challenge and measured after 2 hr relative to control (reference value: 0.00 +/-0.03 %); assay type: functional; settings: time 3 hrs
Rattus norvegicus [5] = assay: Antiinflammatory activity in Wistar rat model of carrageenan-induced paw edema assessed as reduction in thickness of paw edema at 10 mg/kg, ip pretreated for 1 hr followed by carrageenan challenge and measured after 3 hrs (reference value: 1.79 +/-0.07 mm); assay type: functional; settings: time 4 hrs
Rattus norvegicus [6] = assay: Anti-inflammatory activity in Wistar rat assessed as inhibition of carrageenan-induced paw edema at 10 mg/kg, ip pretreated for 1 hr followed by carrageenan challenge and measured after 3 hr relative to control (reference value: 0.00 +/-0.1 %); assay type: functional; settings: time 4 hrs
Rattus norvegicus [7] = assay: Antiinflammatory activity in Wistar rat model of carrageenan-induced paw edema assessed as reduction in thickness of paw edema at 10 mg/kg, ip pretreated for 1 hr followed by carrageenan challenge and measured after 4 hrs (reference value: 1.40 +/-0.10 mm); assay type: functional; settings: time 5 hrs
Rattus norvegicus [8] = assay: Anti-inflammatory activity in Wistar rat assessed as inhibition of carrageenan-induced paw edema at 10 mg/kg, ip pretreated for 1 hr followed by carrageenan challenge and measured after 4 hr relative to control (reference value: 0.00 +/-0.4 %); assay type: functional; settings: time 5 hrs
Rattus norvegicus [9] = assay: Antiinflammatory activity in Wistar rat model of carrageenan-induced paw edema assessed as reduction in thickness of paw edema at 10 mg/kg, ip pretreated for 1 hr followed by carrageenan challenge and measured after 24 hrs (reference value: 0.83 +/-0.08 mm); assay type: functional; settings: time 25 hrs
Rattus norvegicus [10] = assay: Anti-inflammatory activity in Wistar rat assessed as inhibition of carrageenan-induced paw edema at 10 mg/kg, ip pretreated for 1 hr followed by carrageenan challenge and measured after 24 hr relative to control (reference value: 0.00 +/-0.3 %); assay type: functional; settings: time 25 hrs
Rattus norvegicus [11] = assay: Anti-inflammatory activity in Wistar rat assessed as inhibition of carrageenan-induced paw edema at 10 mg/kg, ip pretreated for 1 hr followed by carrageenan challenge and measured after 4 hr relative to indomethacin; assay type: functional; settings: time 5 hrs
Splenocyte [12] = assay: Immunomodulatory activity in Swiss albino mouse splenocytes assessed as cell viability at 10 uM by measuring stimulation index incubated for 72 hrs in presence of mitogenic stimulus phytohaemagglutinin by MTT assay (reference value: 1.00 +/- 0.24); assay type: functional
Splenocyte [13] = assay: Immunomodulatory activity in Swiss albino mouse splenocytes assessed as cell viability at 10 uM by measuring inhibition of stimulation index incubated for 72 hrs in presence of mitogenic stimulus phytohaemagglutinin by MTT assay relative to indomethacin; assay type: functional; settings: read-out: Activity
Peritoneal macrophage [14] = assay: Antiinflammatory activity in […] mouse Peritoneal macrophages assessed as reduction in LPS-induced NO production by measuring reduction in stimulation index at 10 uM preincubated for 1 hr followed by LPS stimulation measured after 24 hrs by Griess method (reference value: 27.31 +/- 2.56 uM); assay type: functional; settings: time 25 hrs
Peritoneal macrophage [15] = assay: Antiinflammatory activity in […] mouse Peritoneal macrophages assessed as inhibition of LPS-induced NO production at 10 uM preincubated for 1 hr followed by LPS stimulation measured after 24 hrs by Griess method relative to control (reference value: 0.0 %); assay type: functional; design: scale not given: the % may be the effect or the level left; settings: time 25 hrs
Staphylococcus aureus = assay: Antibacterial activity against Staphylococcus aureus ATCC 25923 incubated for 18 hrs by agar dilution method; assay type: functional
Streptococcus pyogenes = assay: Antibacterial activity against Streptococcus pyogenes ATCC 19615 incubated for 18 hrs by agar dilution method; assay type: functional
Salmonella typhimurium = assay: Antibacterial activity against Salmonella typhimurium ATCC 19430 incubated for 18 hrs by agar dilution assay; assay type: functional, Salmonella enterica subsp. enterica serovar Typhimurium; settings: Salmonella enterica
Pseudomonas aeruginosa = assay: Antibacterial activity against Pseudomonas aeruginosa ATCC 27853 incubated for 18 hrs by agar dilution assay; assay type: functional
Candida albicans = assay: Antifungal activity against Candida albicans incubated for 18 to 24 hrs by CLSI method; assay type: functional; settings: time 18-24 hrs

Row | SMILES | Activity (Rattus norvegicus [1]) | inhibition in vivo at 10 mg/kg (Rattus norvegicus [2]) | Activity (Rattus norvegicus [3]) | inhibition in vivo at 10 mg/kg (Rattus norvegicus [4]) | Activity (Rattus norvegicus [5]) | inhibition in vivo at 10 mg/kg (Rattus norvegicus [6]) | Activity (Rattus norvegicus [7]) | inhibition in vivo at 10 mg/kg (Rattus norvegicus [8]) | Activity (Rattus norvegicus [9]) | inhibition in vivo at 10 mg/kg (Rattus norvegicus [10]) | inhibition in vivo at 10 mg/kg (Rattus norvegicus [11]) | Activity_index (Splenocyte [12]) | viability at 10 µM (Splenocyte [13]) | Activity (Peritoneal macrophage [14]) | Activity (Peritoneal macrophage [15]) | MIC (Staphylococcus aureus) | MIC (Streptococcus pyogenes) | MIC (Salmonella typhimurium) | MIC (Pseudomonas aeruginosa) | MIC (Candida albicans)
1 | COc1cc(/C=C/C(=O)/C=C(O)/C=C/c2ccc(OC(=O)[C@@H](NC(=O)OCC3c4ccccc4-c4ccccc43)C(C)C)c(OC)c2)ccc1OC(=O)[C@@H](NC(=O)OCC1c2ccccc2-c2ccccc21)C(C)C | 1.88 mm | 22% | 1.05 mm | 49% | 0.9 mm | 50% | 0.66 mm | 53% | 0.44 mm | 47% | 61% | 2.55 | 47.5% | 23.91 µM | 12.46% | 0.25 µg/mL and 0.247 µM | 0.5 µg/mL and 0.494 µM | 0.5 µg/mL and 0.494 µM | 0.5 µg/mL and 0.494 µM | 0.5 µg/mL and 0.494 µM
2 | COc1cc(/C=C/C(=O)/C=C(O)/C=C/c2ccc(OC(=O)[C@H](Cc3ccccc3)NC(=O)OCC3c4ccccc4-c4ccccc43)c(OC)c2)ccc1OC(=O)[C@H](Cc1ccccc1)NC(=O)OCC1c2ccccc2-c2ccccc21 | 2.17 mm | 10% | 1.22 mm | 41% | 0.82 mm | 54% | 0.56 mm | 60% | 0.79 mm | 5% | 69% | 1.78 | 68.1% | 18.84 µM | 31.01% | 0.25 µg/mL and 0.226 µM | 0.125 µg/mL and 0.113 µM | 0.25 µg/mL and 0.226 µM | 2 µg/mL and 1.81 µM | 0.5 µg/mL and 0.452 µM
3 | COc1cc(/C=C/C(=O)/C=C(O)/C=C/c2ccc(OC(=O)[C@H](Cc3ccccc3)NC(=O)OCc3ccccc3)c(OC)c2)ccc1OC(=O)[C@H](Cc1ccccc1)NC(=O)OCc1ccccc1 | 1 mm | 59% | 1.56 mm | 24% | 1.63 mm | 9% | 1.38 mm | 5% | 0.82 mm | 1% | 6% | 2.91 | 41.5% | 26.33 µM | 3.6% | 0.125 µg/mL and 0.134 µM | 0.125 µg/mL and 0.134 µM | 0.125 µg/mL and 0.134 µM | 0.25 µg/mL and 0.269 µM | 2 µg/mL and 2.15 µM
4 | COc1cc(/C=C/C(=O)/C=C(O)/C=C/c2ccc(OC(=O)[C@H](Cc3c[nH]c4ccccc34)NC(=O)OCc3ccccc3)c(OC)c2)ccc1OC(=O)[C@H](Cc1c[nH]c2ccccc12)NC(=O)OCc1ccccc1 | 1.52 mm | 37% | 1.48 mm | 28% | 1.36 mm | 24% | 1.23 mm | 12% | 0.82 mm | 1% | 14% | 2.6 | 46.5% | 24.28 µM | 11.08% | 0.125 µg/mL and 0.124 µM | 0.5 µg/mL and 0.496 µM | 0.125 µg/mL and 0.124 µM | 0.25 µg/mL and 0.248 µM | 1 µg/mL and 0.991 µM
5 | COc1cc(/C=C/C(=O)/C=C(O)/C=C/c2ccc(OC(=O)[C@H](C)NC(=O)OCC3c4ccccc4-c4ccccc43)c(OC)c2)ccc1OC(=O)[C@H](C)NC(=O)OCC1c2ccccc2-c2ccccc21 | 2.12 mm | 12% | 1.59 mm | 23% | 1.02 mm | 43% | 0.62 mm | 56% | 0.41 mm | 51% | 64% | 2.22 | 54.4% | 21.79 µM | 20.22% | 0.5 µg/mL and 0.524 µM | 0.5 µg/mL and 0.524 µM | 0.25 µg/mL and 0.262 µM | 0.25 µg/mL and 0.262 µM | 1 µg/mL and 1.05 µM
6 | COc1cc(/C=C/C(=O)/C=C(O)/C=C/c2ccc(OC(=O)CNC(=O)OC(C)(C)C)c(OC)c2)ccc1OC(=O)CNC(=O)OC(C)(C)C | 1.37 mm | 43% | 1.16 mm | 44% | 1 mm | 44% | 0.73 mm | 48% | 0.44 mm | 47% | 55% | 2.11 | 57.4% | 18.12 µM | 33.65% | 0.25 µg/mL and 0.366 µM | 1 µg/mL and 1.47 µM | 0.125 µg/mL and 0.183 µM | 0.25 µg/mL and 0.366 µM | 0.5 µg/mL and 0.732 µM
